Test results reported in patent US8716324B2, “Tricyclic indeno-pyrrole derivatives as serotonin receptor modulators” (Athersys, Inc., priority 2004, dated 2014).

Molecular target: human 5HT2c receptor (VSV Isoform) (Homo sapiens, UniProt P28335, I156V/I160V/N158S)
Assay: cell-based
Settings: 5-HT2c EC50 (hVSV, μM)

Sequence of human 5HT2c receptor (VSV Isoform) (P28335 33-458 I156V/N158S/I160V limits assumed): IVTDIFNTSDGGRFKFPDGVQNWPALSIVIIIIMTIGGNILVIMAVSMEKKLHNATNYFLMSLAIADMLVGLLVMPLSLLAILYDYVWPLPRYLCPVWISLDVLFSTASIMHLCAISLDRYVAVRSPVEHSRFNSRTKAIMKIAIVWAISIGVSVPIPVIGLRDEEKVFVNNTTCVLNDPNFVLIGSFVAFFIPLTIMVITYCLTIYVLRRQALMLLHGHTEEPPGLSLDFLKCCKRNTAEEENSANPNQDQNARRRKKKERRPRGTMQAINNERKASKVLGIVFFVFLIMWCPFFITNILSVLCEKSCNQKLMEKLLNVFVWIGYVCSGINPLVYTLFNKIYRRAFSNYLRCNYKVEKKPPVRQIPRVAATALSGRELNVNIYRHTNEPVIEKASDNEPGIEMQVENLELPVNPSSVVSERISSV

Compound `COc1ccc2c(c1)C1CNCC1C2C` (single isomer, unassigned) [1, Enantiomer 2] has an EC50 of less than 1 µM.
With `CC1c2ccc(O)cc2C2CNCC12` (single isomer, unassigned) [2, Enantiomer 1] the EC50 was less than 1 µM.
For `CC1c2ccc(O)cc2C2CNCC12` (single isomer, unassigned) [2, Enantiomer 2], the EC50 was less than 0.1 µM.
`COc1cc2c(cc1Cl)C(C)C1CNCC21` (single isomer, unassigned) [3, Enantiomer 2] gave an EC50 of less than 0.1 µM.
Compound `CC1c2cc(Cl)c(O)cc2C2CNCC12` (single isomer, unassigned) [4, Enantiomer 2] has an EC50 of less than 0.1 µM.
For `CC1c2cc(Cl)ccc2C2CNCC12` (single isomer, unassigned) [5, Enantiomer 1], the EC50 was less than 1 µM.
Compound `CC1c2cc(Cl)c(OCc3ccc(F)cc3)cc2C2CNCC12` (single isomer, unassigned) [6, Enantiomer 2] has an EC50 of less than 1 µM.
With `Cc1ccc2c(c1)C(C)C1CNCC21` (single isomer, unassigned) [15, Enantiomer 1] the EC50 was less than 0.1 µM.
For `Cc1ccc2c(c1)C(C)C1CNCC21` (single isomer, unassigned) [15, Enantiomer 2], the EC50 was less than 1 µM.
In the case of `Cc1cc2c(cc1Cl)C(C)C1CNCC21` (single isomer, unassigned) [21, Enantiomer 1], the EC50 is reported as less than 1 µM.
Work on `Cc1cc2c(cc1Cl)C(C)C1CNCC21` (single isomer, unassigned) [21, Enantiomer 2] yielded an EC50 of less than 0.1 µM.
With `Cc1cc2c(cc1Cl)C1CNCC1C2C` (single isomer, unassigned) [23, Enantiomer 1] the EC50 was less than 1 µM.
`Cc1cc2c(cc1Cl)C1CNCC1C2C` (single isomer, unassigned) [23, Enantiomer 2] was tested, and the EC50 was less than 0.1 µM.
In the case of `COc1ccc2c(c1Cl)C1CNCC1C2C` (single isomer, unassigned) [25, Enantiomer 2], the EC50 is reported as less than 1 µM.
`CC1c2cc(Cl)c(Cl)cc2C2CNCC12` (single isomer, unassigned) [26, Enantiomer 1] showed an EC50 of less than 1 µM.
`CC1c2cc(Cl)c(Cl)cc2C2CNCC12` (single isomer, unassigned) [26, Enantiomer 2] was tested, and the EC50 was less than 0.1 µM.
For `CC1c2c(ccc(Cl)c2Cl)C2CNCC12` (single isomer, unassigned) [27, Enantiomer 1], the EC50 was less than 1 µM.
With `CC1c2c(ccc(Cl)c2Cl)C2CNCC12` (single isomer, unassigned) [27, Enantiomer 2] the EC50 was less than 0.1 µM.
Compound `CCOc1cc2c(cc1Cl)C(C)C1CNCC21` (single isomer, unassigned) [29, Enantiomer 2] has an EC50 of less than 0.1 µM.
`COc1cc2c(cc1Br)C(C)C1CNCC21` (single isomer, unassigned) [30, Enantiomer 2] showed an EC50 of less than 0.01 µM.
`CC1c2cc(Br)c(O)cc2C2CNCC12` (single isomer, unassigned) [31, Enantiomer 2] gave an EC50 of less than 0.1 µM.
Work on `COc1cc2c(cc1-c1cccs1)C(C)C1CNCC21` (single isomer, unassigned) [32, Enantiomer 2] yielded an EC50 greater than 10 µM.
`COc1cc2c(cc1C#N)C(C)C1CNCC21` (single isomer, unassigned) [33, Enantiomer 2] was tested, and the EC50 was less than 1 µM.
In the case of `COc1ccc2c(c1OC)C1CNCC1C2C` (single isomer, unassigned) [34, Enantiomer 1], the EC50 is reported as less than 1 µM.
With `COc1c(Cl)cc2c(c1OC)C1CNCC1C2C` (single isomer, unassigned) [35, Enantiomer 1] the EC50 was less than 0.1 µM.
For `COc1cc2c(cc1OC)C1CNCC1C2C` (single isomer, unassigned) [36, Enantiomer 1], the EC50 was greater than 10 µM.
In the case of `COc1cc2c(cc1OC)C1CNCC1C2C` (single isomer, unassigned) [36, Enantiomer 2], the EC50 is reported as less than 1 µM.
With `COc1cc2c(cc1Cl)CC1CNCC21` (single isomer, unassigned) [37, Enantiomer 1] the EC50 was less than 0.1 µM.
Work on `COc1c(Cl)cc2c(c1Cl)C1CNCC1C2C` (single isomer, unassigned) [38, Enantiomer 1] yielded an EC50 of less than 1 µM.
With `COc1c(Cl)cc2c(c1Cl)C1CNCC1C2C` (single isomer, unassigned) [38, Enantiomer 2] the EC50 was less than 0.1 µM.
`CC1c2ccc(Cl)c(Cl)c2C2CNCC12` (single isomer, unassigned) [41, Enantiomer 1] was tested, and the EC50 was less than 1 µM.
`CC1c2ccc(Cl)c(Cl)c2C2CNCC12` (single isomer, unassigned) [41, Enantiomer 2] showed an EC50 of less than 10 µM.
`CC1c2c(ccc(Cl)c2F)C2CNCC12` (single isomer, unassigned) [42, Enantiomer 1] gave an EC50 of less than 10 µM.
In the case of `CC1c2c(ccc(Cl)c2F)C2CNCC12` (single isomer, unassigned) [42, Enantiomer 2], the EC50 is reported as less than 0.1 µM.
With `CC1c2ccc(OCc3ccccc3)cc2C2CNCC12` (single isomer, unassigned) [43, Enantiomer 2] the EC50 was less than 10 µM.
`CC1c2ccc(OCc3ccccc3F)cc2C2CNCC12` (single isomer, unassigned) [44, Enantiomer 2] was tested, and the EC50 was less than 10 µM.
With `CC1c2ccc(OCc3cccc(F)c3)cc2C2CNCC12` (single isomer, unassigned) [45, Enantiomer 2] the EC50 was less than 10 µM.
`CC1c2ccc(OCc3ccc(F)cc3)cc2C2CNCC12` (single isomer, unassigned) [46, Enantiomer 2] gave an EC50 of less than 10 µM.
In the case of `CC1c2ccc(-c3c(F)cccc3F)cc2C2CNCC12` (single isomer, unassigned) [47, Enantiomer 2], the EC50 is reported as greater than 10 µM.
Compound `COc1ccc2c(c1)C1CNCC1C2C` (centres unmarked) [Example 1, 5-Methoxy-8-methyl-1,2,3,3a,8,8a-hexahydroindeno[1,2-c]pyrrole] has an EC50 greater than 10 µM.
`CC1c2ccc(O)cc2C2CNCC12` (centres unmarked) [Example 2, 5-Hydroxy-8-methyl-1,2,3,3a,8,8a-hexahydroindeno[1,2-c]pyrrole] showed an EC50 of less than 0.1 µM.
In the case of `COc1cc2c(cc1Cl)C(C)C1CNCC21` (centres unmarked) [Example 3, 5-Methoxy-6-chloro-8-methyl-1,2,3,3a,8,8a-hexahydroindeno[1,2-c]pyrrole], the EC50 is reported as less than 0.1 µM.
For `CC1c2cc(Cl)c(O)cc2C2CNCC12` (centres unmarked) [Example 4, 5-Hydroxy-6-chloro-8-methyl-1,2,3,3a,8,8a-hexahydroindeno[1,2-c]pyrrole], the EC50 was less than 1 µM.
Compound `CC1c2cc(Cl)ccc2C2CNCC12` (centres unmarked) [Example 5, 6-Chloro-8-methyl-1,2,3,3a,8,8a-hexahydroindeno[1,2-c]pyrrole] has an EC50 of less than 0.1 µM.
In the case of `CC1c2cc(Cl)c(OCc3ccc(F)cc3)cc2C2CNCC12` (centres unmarked) [Example 6, 5-(4-Fluorobenzyloxy)-6-chloro-8-methyl-1,2,3,3a,8,8a-hexahydroindeno[1,2-c]pyrrole], the EC50 is reported as less than 1 µM.
`CC1c2cc(Cl)c(OCc3ccccc3)cc2C2CNCC12` (centres unmarked) [Example 7, 5-Benzyloxy-6-chloro-8-methyl-1,2,3,3a,8,8a-hexahydroindeno[1,2-c]pyrrole] gave an EC50 of less than 10 µM.
`CC1c2cc(Cl)c(OCc3ccccc3F)cc2C2CNCC12` (centres unmarked) [Example 8, 5-(2-Fluorobenzyloxy)-6-chloro-8-methyl-1,2,3,3a,8,8a-hexahydroindeno[1,2-c]pyrrole] gave an EC50 of less than 10 µM.
`CC1c2cc(Cl)c(OCc3cccc(F)c3)cc2C2CNCC12` (centres unmarked) [Example 9, 5-(3-Fluorobenzyloxy)-6-chloro-8-methyl-1,2,3,3a,8,8a-hexahydroindeno[1,2-c]pyrrole] showed an EC50 of less than 10 µM.
For `c1ccc2c(c1)CC1CNCC21` (centres unmarked) [Example 10, 1,2,3,3a,8,8a-Hexahydroindeno[1,2-c]pyrrole], the EC50 was less than 10 µM.
In the case of `Clc1ccc2c(c1)CC1CNCC21` (centres unmarked) [Example 11, 6-Chloro-1,2,3,3a,8,8a-hexahydroindeno[1,2-c]pyrrole], the EC50 is reported as less than 0.1 µM.
`Fc1cccc(F)c1-c1ccc2c(c1)CC1CNCC21` (centres unmarked) [Example 12, 6-(2,6-Difluorophenyl)-1,2,3,3a,8,8a-hexahydroindeno[1,2-c]pyrrole] gave an EC50 greater than 10 µM.
For `Cc1ccc2c(c1)C1CNCC1C2C` (centres unmarked) [Example 13, 5-Methyl-8-methyl-1,2,3,3a,8,8a-hexahydroindeno[1,2-c]pyrrole], the EC50 was less than 1 µM.
Work on `Cc1cccc2c1C1CNCC1C2C` (centres unmarked) [Example 14, 4-Methyl-8-methyl-1,2,3,3a,8,8a-hexahydroindeno[1,2-c]pyrrole] yielded an EC50 of less than 1 µM.
`Cc1ccc2c(c1)C(C)C1CNCC21` (centres unmarked) [Example 15, 6-Methyl-8-methyl-1,2,3,3a,8,8a-hexahydroindeno[1,2-c]pyrrole] was tested, and the EC50 was less than 1 µM.
`Cc1cccc2c1C(C)C1CNCC21` (centres unmarked) [Example 16, 7-Methyl-8-methyl-1,2,3,3a,8,8a-hexahydroindeno[1,2-c]pyrrole] showed an EC50 of less than 1 µM.
Compound `CC1c2cccc(F)c2C2CNCC12` (centres unmarked) [Example 17, 4-Fluoro-8-methyl-1,2,3,3a,8,8a-hexahydroindeno[1,2-c]pyrrole] has an EC50 of less than 10 µM.
For `CC1c2ccc(F)cc2C2CNCC12` (centres unmarked) [Example 18, 5-Fluoro-8-methyl-1,2,3,3a,8,8a-hexahydroindeno[1,2-c]pyrrole], the EC50 was less than 1 µM.
In the case of `CC1c2cc(F)ccc2C2CNCC12` (centres unmarked) [Example 19, 6-Fluoro-8-methyl-1,2,3,3a,8,8a-hexahydroindeno[1,2-c]pyrrole], the EC50 is reported as less than 1 µM.
Compound `CC1c2ccc(Cl)cc2C2CNCC12` (centres unmarked) [Example 20, 5-Chloro-8-methyl-1,2,3,3a,8,8a-hexahydroindeno[1,2-c]pyrrole] has an EC50 of less than 10 µM.
`Cc1cc2c(cc1Cl)C(C)C1CNCC21` (centres unmarked) [Example 21, 5-Methyl-6-chloro-8-methyl-1,2,3,3a,8,8a-hexahydroindeno[1,2-c]pyrrole] showed an EC50 of less than 0.1 µM.
Work on `Cc1cc2c(cc1Br)C(C)C1CNCC21` (centres unmarked) [Example 22, 5-Methyl-6-bromo-8-methyl-1,2,3,3a,8,8a-hexahydroindeno[1,2-c]pyrrole] yielded an EC50 of less than 1 µM.
With `Cc1cc2c(cc1Cl)C1CNCC1C2C` (centres unmarked) [Example 23, 5-Chloro-6-methyl-8-methyl-1,2,3,3a,8,8a-hexahydroindeno[1,2-c]pyrrole] the EC50 was less than 1 µM.
`Cc1cc2c(cc1Br)C1CNCC1C2C` (centres unmarked) [Example 24, 5-Bromo-6-methyl-8-methyl-1,2,3,3a,8,8a-hexahydroindeno[1,2-c]pyrrole] showed an EC50 of less than 1 µM.
`CC1c2cc(Cl)c(Cl)cc2C2CNCC12` (centres unmarked) [Example 26, 5,6-Dichloro-8-methyl-1,2,3,3a,8,8a-hexahydroindeno[1,2-c]pyrrole] was tested, and the EC50 was less than 0.1 µM.
With `CC1c2c(ccc(Cl)c2Cl)C2CNCC12` (centres unmarked) [Example 27, 6,7-Dichloro-8-methyl-1,2,3,3a,8,8a-hexahydroindeno[1,2-c]pyrrole] the EC50 was less than 0.1 µM.
